From ChEMBL document CHEMBL1201862, “PubChem BioAssay data set” (2004)
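A five-concentration, 48-hour dose response in 96-well plates underlies each endpoint, interpolated linearly between surrounding concentrations. Here, GI50 denotes the concentration required for 50% inhibition of growth.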 The source made the active and inactive calls. Cut-off read from the data, not from the text of the source: active = GI50 up to about 1.1 µM and inactive = higher.

Legend:
Experiment in all cases: DTP human tumour cell line panel, 48 h
[1] = test system: SN12C
[2] = test system: SW-620
[3] = test system: BT-549
[4] = test system: U-251
[5] = test system: SNB-75
[6] = test system: NCI-H460
[7] = test system: HCC 2998
[8] = test system: A498
[9] = test system: MDA-MB-231
[10] = test system: CAKI-1
[11] = test system: RPMI-8226
[12] = test system: SF-268
[13] = test system: HCT-15
[14] = test system: OVCAR-8
[15] = test system: NCI-H226
[16] = test system: NCI-H23
[17] = test system: MOLT-4
[18] = test system: SK-MEL-28
[19] = test system: ACHN
[20] = test system: CCRF-CEM
[21] = test system: SR
[22] = test system: UACC-257
[23] = test system: UACC-62
[24] = test system: HOP-92
[25] = test system: K562
[26] = test system: OVCAR-4
[27] = test system: KM12
[28] = test system: MDA-N
[29] = test system: UO-31
[30] = test system: HL-60
[31] = test system: SNB-19
[32] = test system: MDA-MB-435
[33] = test system: TK-10
[34] = test system: NCI/ADR-RES
[35] = test system: Hs-578T
[36] = test system: HOP-62
[37] = test system: SK-MEL-5
[38] = test system: COLO 205
[39] = test system: EKVX
[40] = test system: M14
[41] = test system: IGROV-1
[42] = test system: HCT-116
[43] = test system: SK-MEL-2
[44] = test system: RXF 393
[45] = test system: PC-3
[46] = test system: 786-0
[47] = test system: MCF7
[48] = test system: A549
[49] = test system: HT-29
[50] = test system: Malme-3M
[51] = test system: OVCAR-3
[52] = test system: DU-145
[53] = test system: NCI-H522
[54] = test system: SF-295
[55] = test system: SF-539
[56] = test system: LOX IMVI
[57] = test system: OVCAR-5
[58] = test system: SK-OV-3

With `CC1(C)/C(=N\O)C2(C#N)CCC1C2` (stereo not given) the GI50 [1] was > 100 µM (inactive), the GI50 [2] was > 100 µM (inactive) and the GI50 [3] was > 100 µM (inactive). For the same molecule, the GI50 [4] was > 100 µM (inactive), the GI50 [5] was > 100 µM (inactive) and the GI50 [6] was > 100 µM (inactive). The GI50 [7] was > 100 µM (inactive), the GI50 [8] was > 100 µM (inactive) and the GI50 [9] was > 100 µM (inactive). For the same molecule, the GI50 [10] was > 100 µM (inactive), the GI50 [11] was > 100 µM (inactive) and the GI50 [12] was > 100 µM (inactive). The GI50 [13] was > 100 µM, the GI50 [14] was > 100 µM (inactive) and the GI50 [15] was > 100 µM (inactive). For the same molecule, the GI50 [16] was > 100 µM (inactive), the GI50 [17] was > 100 µM (inactive) and the GI50 [18] was > 100 µM (inactive). The GI50 [19] was > 100 µM (inactive), the GI50 [20] was > 100 µM (inactive) and the GI50 [21] was > 100 µM (inactive). The GI50 [22] was > 100 µM (inactive), the GI50 [23] was > 100 µM (inactive) and the GI50 [24] was > 100 µM (inactive). The GI50 [25] was > 100 µM (inactive), the GI50 [26] was > 100 µM (inactive) and the GI50 [27] was > 100 µM (inactive). The GI50 [28] was > 100 µM (inactive), the GI50 [29] was > 100 µM (inactive) and the GI50 [30] was > 100 µM (inactive). The GI50 [31] was > 100 µM (inactive), the GI50 [32] was > 100 µM (inactive) and the GI50 [33] was > 100 µM (inactive). For the same molecule, the GI50 [34] was > 100 µM (inactive).

`CCOC(=O)c1ccc(/N=C2\S/C(=C\C(=S)Nc3ccccc3)N(c3ccccc3)\C2=N/c2ccc(C(=O)OCC)cc2)cc1` was tested, and the GI50 [1] was > 100 µM (inactive), the GI50 [35] was 62.4 µM (inactive) and the GI50 [36] was > 100 µM (inactive). For the same molecule, the GI50 [2] was > 100 µM (inactive), the GI50 [37] was 40.7 µM (inactive) and the GI50 [3] was 62.7 µM (inactive). The GI50 [38] was > 100 µM (inactive), the GI50 [5] was 34.5 µM (inactive) and the GI50 [7] was > 100 µM (inactive). For the same molecule, the GI50 [39] was > 100 µM (inactive), the GI50 [9] was > 100 µM (inactive) and the GI50 [11] was > 100 µM (inactive). For the same molecule, the GI50 [13] was > 100 µM, the GI50 [40] was 34.6 µM (inactive) and the GI50 [41] was > 100 µM (inactive). For the same molecule, the GI50 [14] was > 100 µM (inactive), the GI50 [42] was 27.2 µM (inactive) and the GI50 [15] was > 100 µM (inactive). The GI50 [43] was > 100 µM (inactive), the GI50 [16] was > 100 µM (inactive) and the GI50 [17] was > 100 µM (inactive). For the same molecule, the GI50 [18] was 95.5 µM (inactive), the GI50 [20] was > 100 µM (inactive) and the GI50 [44] was 81.5 µM (inactive). For the same molecule, the GI50 [21] was > 100 µM (inactive), the GI50 [22] was 94.2 µM (inactive) and the GI50 [45] was > 100 µM (inactive). The GI50 [23] was > 100 µM (inactive), the GI50 [24] was 22.8 µM (inactive) and the GI50 [25] was > 100 µM (inactive). The GI50 [46] was 82 µM (inactive), the GI50 [27] was > 100 µM (inactive) and the GI50 [29] was > 100 µM (inactive). For the same molecule, the GI50 [47] was > 100 µM (inactive), the GI50 [30] was > 100 µM (inactive) and the GI50 [48] was > 100 µM (inactive). The GI50 [31] was > 100 µM (inactive), the GI50 [49] was > 100 µM (inactive) and the GI50 [33] was > 100 µM (inactive). The GI50 [50] was 21.6 µM (inactive).

In the case of `O=C1CN2C(c3ccccc3)=NN(c3ccc([N+](=O)[O-])cc3)C2(c2ccccc2)c2cc(Cl)ccc2N1CC1CC1` (stereo not given), the GI50 [1] is reported as > 100 µM (inactive), the GI50 [35] is reported as > 100 µM (inactive) and the GI50 [36] is reported as > 100 µM (inactive). For the same molecule, the GI50 [2] was > 100 µM (inactive), the GI50 [37] was > 100 µM (inactive) and the GI50 [3] was > 100 µM (inactive). For the same molecule, the GI50 [38] was > 100 µM (inactive), the GI50 [4] was > 100 µM (inactive) and the GI50 [5] was > 100 µM (inactive). The GI50 [6] was > 100 µM (inactive), the GI50 [7] was > 100 µM (inactive) and the GI50 [8] was > 100 µM (inactive). For the same molecule, the GI50 [39] was > 100 µM (inactive), the GI50 [9] was > 100 µM (inactive) and the GI50 [10] was > 100 µM (inactive). The GI50 [11] was 29 µM (inactive), the GI50 [12] was > 100 µM (inactive) and the GI50 [13] was > 100 µM. For the same molecule, the GI50 [51] was > 100 µM (inactive), the GI50 [52] was > 100 µM (inactive) and the GI50 [40] was > 100 µM (inactive). The GI50 [41] was > 100 µM (inactive), the GI50 [14] was > 100 µM (inactive) and the GI50 [42] was > 100 µM (inactive). The GI50 [15] was > 100 µM (inactive), the GI50 [16] was > 100 µM (inactive) and the GI50 [17] was 79.4 µM (inactive). The GI50 [18] was > 100 µM (inactive), the GI50 [19] was > 100 µM (inactive) and the GI50 [20] was > 100 µM (inactive). The GI50 [44] was > 100 µM (inactive), the GI50 [21] was > 100 µM (inactive) and the GI50 [22] was > 100 µM (inactive). The GI50 [45] was 7.6 µM (inactive), the GI50 [23] was > 100 µM (inactive) and the GI50 [53] was > 100 µM (inactive). For the same molecule, the GI50 [24] was > 100 µM (inactive), the GI50 [25] was > 100 µM (inactive) and the GI50 [46] was > 100 µM (inactive). For the same molecule, the GI50 [26] was > 100 µM (inactive), the GI50 [54] was > 100 µM (inactive) and the GI50 [27] was > 100 µM (inactive). The GI50 [55] was > 100 µM (inactive), the GI50 [29] was > 100 µM (inactive) and the GI50 [56] was > 100 µM (inactive). For the same molecule, the GI50 [47] was > 100 µM (inactive), the GI50 [30] was < 0.01 µM (active) and the GI50 [48] was > 100 µM (inactive). For the same molecule, the GI50 [31] was > 100 µM (inactive), the GI50 [32] was > 100 µM (inactive) and the GI50 [49] was > 100 µM (inactive). The GI50 [57] was > 100 µM (inactive), the GI50 [58] was > 100 µM (inactive) and the GI50 [33] was > 100 µM (inactive). The GI50 [50] was > 100 µM (inactive) and the GI50 [34] was > 100 µM (inactive).
